Reference: ChEMBL document CHEMBL1148343, “Fragment-based drug discovery” (J Med Chem, 2004)

Legend:
[1] = Oral bioavailability was determined; Not orally available; type: ADME, organism-based; settings: in vivo
Human papillomavirus [2] = assay: Inhibitory concentration against DNA-binding domain of the human papillomavirus protein E2; type: functional
Human papillomavirus [3] = assay: Dissociation constant against DNA-binding domain of the human papillomavirus protein E2; type: functional
[4] = molecular target: Neuraminidase (Influenza A virus (A/Puerto Rico/8/1934(H1N1)), UniProt P03468)
Description: Inhibition of influenza A viral enzyme neuraminidase

Stromelysin-1 [5] = molecular target: T1, Stromelysin-1 (Homo sapiens, UniProt P08254)
Description: Inhibition of Matrix Metalloprotease-3 (MMP-3)

Caspase-3 = Caspase-3 (Homo sapiens, UniProt P42574); assay: Binding affinity against Caspase-3
[6] = Dissociation constant against Erythromycin-Resistance Methylase AM
Collagenase 3 = Collagenase 3 (Homo sapiens, UniProt P45452); assay: Inhibition of Matrix Metalloprotease-13 (MMP-13)
Interstitial collagenase = Interstitial collagenase (Homo sapiens, UniProt P03956)
Description: Inhibition of Matrix Metalloprotease-1 (MMP-1)

Nucleic Acid = assay: Dissociation constant towards Mutant U1061A RNA; type: nucleic-acid assay
[7] = molecular target: Mitogen-activated protein kinase 10 (Homo sapiens, UniProt P53779); assay: Affinity for c-Jun N-terminal kinase 3
[8] = Oral bioavailability; type: ADME, organism-based; settings: eutheria, in vivo
[9] = molecular target: Proto-oncogene tyrosine-protein kinase Src (Homo sapiens, UniProt P12931); assay: Inhibition of c-Src tyrosine kinase
Acetylcholinesterase [10] = molecular target: Acetylcholinesterase (Rattus norvegicus, UniProt P37136); assay: Inhibitory concentration against Acetylcholinesterase in rat brain; type: tissue-based
[11] = Dissociation constant against FK506 binding protein
Adenosine deaminase = Adenosine deaminase (Homo sapiens, UniProt P00813)
Description: Binding affinity towards adenosine deaminase

[12] = molecular target: Adenylosuccinate synthetase isozyme 2 (Homo sapiens, UniProt P30520)
Description: Inhibitory concentration against Adenylosuccinate synthetase

Stromelysin-1 [13] = molecular target: T1, Stromelysin-1; assay: Dissociation constant for Matrix Metalloprotease-3 (MMP-3)
[14] = molecular target: Intercellular adhesion molecule (ICAM-1), Integrin alpha-L/beta-2 (Homo sapiens, UniProt P05107+P20701)
Description: Inhibition of Leukocyte function associated antigen 1 (LFA-1)

[15] = molecular target: Urokinase-type plasminogen activator (Homo sapiens, UniProt P00749)
Description: Binding affinity towards Urokinase-type plasminogen activator

[16] = Half life was determined; type: ADME; settings: rat
[17] = molecular target: Tyrosine-protein phosphatase non-receptor type 1 (Homo sapiens, UniProt P18031)
Description: Dissociation constant for Protein-tyrosine phosphatase 1B

[18] = molecular target: T2, Glycogen phosphorylase, liver form (Mus musculus, UniProt Q9ET01)
T2 sequence (Q9ET01 whole entry): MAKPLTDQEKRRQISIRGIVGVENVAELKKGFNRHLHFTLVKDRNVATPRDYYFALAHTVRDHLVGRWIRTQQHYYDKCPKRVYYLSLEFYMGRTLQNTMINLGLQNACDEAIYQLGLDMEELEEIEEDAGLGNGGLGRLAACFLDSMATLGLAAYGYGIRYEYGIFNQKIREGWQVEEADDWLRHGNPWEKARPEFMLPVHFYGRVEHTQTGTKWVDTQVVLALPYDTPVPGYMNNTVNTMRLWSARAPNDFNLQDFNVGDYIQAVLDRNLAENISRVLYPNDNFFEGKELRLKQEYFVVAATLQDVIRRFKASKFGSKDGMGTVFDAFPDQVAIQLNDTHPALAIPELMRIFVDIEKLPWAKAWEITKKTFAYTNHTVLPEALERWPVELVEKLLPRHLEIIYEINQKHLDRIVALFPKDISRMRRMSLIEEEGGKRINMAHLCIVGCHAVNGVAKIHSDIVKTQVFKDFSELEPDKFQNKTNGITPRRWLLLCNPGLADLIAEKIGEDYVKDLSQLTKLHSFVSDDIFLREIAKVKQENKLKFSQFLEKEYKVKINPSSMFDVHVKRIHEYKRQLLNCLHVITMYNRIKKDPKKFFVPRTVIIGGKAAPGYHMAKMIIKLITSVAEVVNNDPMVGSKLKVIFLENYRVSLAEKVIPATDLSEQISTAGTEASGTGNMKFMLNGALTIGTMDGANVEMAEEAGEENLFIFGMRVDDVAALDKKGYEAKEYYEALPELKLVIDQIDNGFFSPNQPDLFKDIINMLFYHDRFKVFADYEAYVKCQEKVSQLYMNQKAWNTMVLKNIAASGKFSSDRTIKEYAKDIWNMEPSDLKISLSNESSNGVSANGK
Description: Inhibitory concentration against glycogen phosphorylase

Thymidylate synthase [19] = molecular target: Thymidylate synthase (Lactobacillus casei, UniProt P00469)
Bcl-2-like protein 1 = Bcl-2-like protein 1 (Homo sapiens, UniProt Q07817); assay: Inhibitory concentration against B-Cell Lymphoma xL (Bcl-xL) Bak-peptide binding region; type: functional
[20] = Binding affinity against Erythromycin-Resistance Methylase AM
Thymidylate synthase [21] = molecular target: Thymidylate synthase (Homo sapiens, UniProt P04818); assay: Tested for binding affinity towards thymidylate synthase
[22] = Inhibition of Interleukin-2 receptor
[23] = molecular target: Matrix metalloproteinase-9 (Homo sapiens, UniProt P14780); assay: Inhibition of gelatinase B, matrix metalloprotease-9 (MMP-9)
[24] = molecular target: Cyclin-dependent kinase 2 (Homo sapiens, UniProt P24941); assay: Inhibition of Cyclin-Dependent Kinase 2
Acetylcholinesterase [25] = molecular target: Acetylcholinesterase (Mus musculus, UniProt P21836)
Description: Dissociation constant towards Acetylcholinesterase in mouse

Sequence of Neuraminidase (Influenza A virus (A/Puerto Rico/8/1934(H1N1)), UniProt P03468) (P03468 whole entry): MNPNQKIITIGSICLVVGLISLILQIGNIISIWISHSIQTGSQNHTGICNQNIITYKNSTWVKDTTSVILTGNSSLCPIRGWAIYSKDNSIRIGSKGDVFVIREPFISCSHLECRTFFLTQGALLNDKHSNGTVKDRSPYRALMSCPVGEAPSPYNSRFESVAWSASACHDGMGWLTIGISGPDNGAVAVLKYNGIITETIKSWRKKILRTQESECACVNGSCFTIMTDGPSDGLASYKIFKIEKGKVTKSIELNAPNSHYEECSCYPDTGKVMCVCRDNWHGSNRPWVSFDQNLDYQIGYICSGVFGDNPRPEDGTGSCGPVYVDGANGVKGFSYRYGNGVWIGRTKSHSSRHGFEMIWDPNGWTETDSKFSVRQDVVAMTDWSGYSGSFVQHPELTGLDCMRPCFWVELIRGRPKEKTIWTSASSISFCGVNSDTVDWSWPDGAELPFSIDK
T1 sequence (P08254 whole entry): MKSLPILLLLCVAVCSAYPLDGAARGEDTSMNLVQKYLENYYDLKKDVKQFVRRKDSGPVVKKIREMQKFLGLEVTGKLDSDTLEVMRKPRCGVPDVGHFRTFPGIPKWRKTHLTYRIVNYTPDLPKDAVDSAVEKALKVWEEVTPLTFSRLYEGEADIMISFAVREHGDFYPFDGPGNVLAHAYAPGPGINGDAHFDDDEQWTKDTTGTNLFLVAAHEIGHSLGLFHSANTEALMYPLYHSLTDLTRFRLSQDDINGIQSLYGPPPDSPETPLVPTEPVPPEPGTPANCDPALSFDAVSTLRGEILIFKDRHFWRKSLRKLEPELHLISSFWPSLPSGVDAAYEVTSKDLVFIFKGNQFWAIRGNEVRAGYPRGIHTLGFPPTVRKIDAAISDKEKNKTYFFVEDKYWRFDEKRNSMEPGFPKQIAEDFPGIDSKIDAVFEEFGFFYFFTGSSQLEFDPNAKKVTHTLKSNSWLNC
Sequence of Adenylosuccinate synthetase isozyme 2 (P30520 whole entry): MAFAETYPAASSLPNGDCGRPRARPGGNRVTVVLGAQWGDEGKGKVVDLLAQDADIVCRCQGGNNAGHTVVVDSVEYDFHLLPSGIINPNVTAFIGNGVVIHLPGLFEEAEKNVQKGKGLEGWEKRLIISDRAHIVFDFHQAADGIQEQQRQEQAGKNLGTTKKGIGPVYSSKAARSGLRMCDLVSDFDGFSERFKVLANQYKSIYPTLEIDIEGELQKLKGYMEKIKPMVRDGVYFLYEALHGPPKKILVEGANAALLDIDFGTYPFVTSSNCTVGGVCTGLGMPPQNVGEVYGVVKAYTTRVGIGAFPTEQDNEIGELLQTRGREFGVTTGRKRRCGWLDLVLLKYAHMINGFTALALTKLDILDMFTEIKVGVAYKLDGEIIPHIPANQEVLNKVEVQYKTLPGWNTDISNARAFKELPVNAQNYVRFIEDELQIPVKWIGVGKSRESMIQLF
Sequence of Proto-oncogene tyrosine-protein kinase Src (P12931 2-536 limits assumed): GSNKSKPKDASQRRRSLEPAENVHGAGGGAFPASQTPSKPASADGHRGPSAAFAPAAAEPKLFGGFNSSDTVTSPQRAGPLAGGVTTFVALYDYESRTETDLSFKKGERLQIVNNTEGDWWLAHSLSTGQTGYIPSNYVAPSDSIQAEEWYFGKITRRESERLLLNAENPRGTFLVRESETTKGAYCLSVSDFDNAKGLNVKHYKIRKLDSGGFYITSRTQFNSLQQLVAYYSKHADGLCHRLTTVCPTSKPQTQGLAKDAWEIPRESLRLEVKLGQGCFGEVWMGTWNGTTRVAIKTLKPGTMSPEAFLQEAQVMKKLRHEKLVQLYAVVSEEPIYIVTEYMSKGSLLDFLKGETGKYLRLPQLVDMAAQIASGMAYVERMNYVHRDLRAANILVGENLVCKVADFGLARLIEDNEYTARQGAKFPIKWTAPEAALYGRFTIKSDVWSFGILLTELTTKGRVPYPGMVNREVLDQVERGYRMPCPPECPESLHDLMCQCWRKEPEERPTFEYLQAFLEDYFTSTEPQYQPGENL
Sequence of Thymidylate synthase (Lactobacillus casei, UniProt P00469) (P00469 whole entry): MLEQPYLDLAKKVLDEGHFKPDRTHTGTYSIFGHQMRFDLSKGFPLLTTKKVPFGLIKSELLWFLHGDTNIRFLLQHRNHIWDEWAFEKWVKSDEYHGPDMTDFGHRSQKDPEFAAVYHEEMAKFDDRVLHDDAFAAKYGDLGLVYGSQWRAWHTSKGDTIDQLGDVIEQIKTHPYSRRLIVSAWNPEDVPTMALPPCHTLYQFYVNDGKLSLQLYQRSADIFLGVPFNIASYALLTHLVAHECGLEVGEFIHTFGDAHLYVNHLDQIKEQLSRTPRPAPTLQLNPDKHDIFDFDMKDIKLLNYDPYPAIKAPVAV
Sequence of Interstitial collagenase (P03956 whole entry): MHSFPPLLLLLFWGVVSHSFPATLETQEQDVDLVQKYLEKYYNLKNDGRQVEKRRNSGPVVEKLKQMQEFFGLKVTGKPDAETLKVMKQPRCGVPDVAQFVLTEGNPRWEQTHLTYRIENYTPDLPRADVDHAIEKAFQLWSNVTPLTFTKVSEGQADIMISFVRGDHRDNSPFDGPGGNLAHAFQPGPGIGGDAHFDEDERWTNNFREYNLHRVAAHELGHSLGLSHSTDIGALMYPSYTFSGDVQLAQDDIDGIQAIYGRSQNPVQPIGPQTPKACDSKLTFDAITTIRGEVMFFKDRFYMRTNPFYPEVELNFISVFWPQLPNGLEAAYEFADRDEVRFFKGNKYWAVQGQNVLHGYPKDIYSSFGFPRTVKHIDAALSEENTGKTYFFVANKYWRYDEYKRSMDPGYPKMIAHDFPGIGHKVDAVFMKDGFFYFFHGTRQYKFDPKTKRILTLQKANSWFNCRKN
Sequence of Acetylcholinesterase (Rattus norvegicus, UniProt P37136) (P37136 whole entry): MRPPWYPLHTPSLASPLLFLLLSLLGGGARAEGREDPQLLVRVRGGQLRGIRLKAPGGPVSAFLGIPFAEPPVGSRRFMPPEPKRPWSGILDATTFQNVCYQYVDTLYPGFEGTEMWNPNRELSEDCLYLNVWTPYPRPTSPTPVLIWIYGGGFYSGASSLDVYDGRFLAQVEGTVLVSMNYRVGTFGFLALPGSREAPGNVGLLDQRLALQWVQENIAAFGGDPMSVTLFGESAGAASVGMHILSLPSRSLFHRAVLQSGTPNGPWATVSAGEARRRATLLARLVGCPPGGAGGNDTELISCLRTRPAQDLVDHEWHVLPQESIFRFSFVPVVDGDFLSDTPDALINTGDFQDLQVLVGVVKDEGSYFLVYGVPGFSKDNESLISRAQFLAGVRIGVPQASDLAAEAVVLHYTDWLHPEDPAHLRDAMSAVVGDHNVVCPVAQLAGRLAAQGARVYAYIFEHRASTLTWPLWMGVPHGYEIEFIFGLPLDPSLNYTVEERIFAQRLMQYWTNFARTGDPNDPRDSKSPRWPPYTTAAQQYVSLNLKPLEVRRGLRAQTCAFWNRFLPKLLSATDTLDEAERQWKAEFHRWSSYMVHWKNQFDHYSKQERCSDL
Sequence of Mitogen-activated protein kinase 10 (P53779 whole entry): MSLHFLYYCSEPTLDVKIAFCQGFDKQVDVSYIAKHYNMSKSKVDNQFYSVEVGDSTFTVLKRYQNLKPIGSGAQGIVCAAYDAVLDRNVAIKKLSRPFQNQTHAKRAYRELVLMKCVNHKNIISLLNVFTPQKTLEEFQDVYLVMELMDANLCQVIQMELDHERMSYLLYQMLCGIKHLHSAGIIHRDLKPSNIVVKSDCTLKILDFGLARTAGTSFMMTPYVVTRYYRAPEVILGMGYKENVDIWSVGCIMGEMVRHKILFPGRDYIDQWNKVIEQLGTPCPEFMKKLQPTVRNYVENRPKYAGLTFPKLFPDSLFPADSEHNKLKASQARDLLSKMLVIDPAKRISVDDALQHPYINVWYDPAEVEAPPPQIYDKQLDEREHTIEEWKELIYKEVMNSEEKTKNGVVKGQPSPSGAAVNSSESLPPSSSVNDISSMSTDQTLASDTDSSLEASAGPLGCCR
Sequence of Bcl-2-like protein 1 (Q07817 whole entry): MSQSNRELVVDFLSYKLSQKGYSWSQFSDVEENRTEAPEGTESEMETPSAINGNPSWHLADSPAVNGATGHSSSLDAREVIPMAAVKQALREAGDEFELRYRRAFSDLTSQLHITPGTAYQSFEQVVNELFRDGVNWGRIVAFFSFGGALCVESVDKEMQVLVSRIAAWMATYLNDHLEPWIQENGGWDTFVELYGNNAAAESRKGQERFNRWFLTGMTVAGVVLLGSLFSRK
Sequence of Adenosine deaminase (P00813 whole entry): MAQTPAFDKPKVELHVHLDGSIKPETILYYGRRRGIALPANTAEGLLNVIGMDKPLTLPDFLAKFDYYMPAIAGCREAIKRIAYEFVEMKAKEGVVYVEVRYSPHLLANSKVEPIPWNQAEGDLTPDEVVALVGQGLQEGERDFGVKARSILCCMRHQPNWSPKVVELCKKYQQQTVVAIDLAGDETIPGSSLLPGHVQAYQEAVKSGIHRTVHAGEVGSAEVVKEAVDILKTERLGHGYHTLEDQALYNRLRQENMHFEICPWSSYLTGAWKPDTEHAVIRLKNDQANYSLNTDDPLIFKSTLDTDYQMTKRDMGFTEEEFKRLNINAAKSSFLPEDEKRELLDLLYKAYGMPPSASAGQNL
Sequence of Tyrosine-protein phosphatase non-receptor type 1 (P18031 whole entry): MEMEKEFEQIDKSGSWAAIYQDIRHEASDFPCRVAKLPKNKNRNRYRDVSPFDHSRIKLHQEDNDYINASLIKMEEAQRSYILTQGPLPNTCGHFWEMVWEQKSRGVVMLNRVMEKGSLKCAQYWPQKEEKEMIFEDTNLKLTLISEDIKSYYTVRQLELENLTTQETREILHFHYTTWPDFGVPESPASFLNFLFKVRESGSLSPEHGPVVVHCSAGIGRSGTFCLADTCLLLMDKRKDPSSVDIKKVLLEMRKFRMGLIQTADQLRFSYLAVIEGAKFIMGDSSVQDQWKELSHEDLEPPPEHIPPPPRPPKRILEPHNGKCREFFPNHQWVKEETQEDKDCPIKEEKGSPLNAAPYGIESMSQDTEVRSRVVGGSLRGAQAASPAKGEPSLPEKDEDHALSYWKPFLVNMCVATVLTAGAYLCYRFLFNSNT
Description for Carbonic anhydrase: Inhibitory concentration against carbonic anhydrase

## N=C(N)c1ccc2cccc(Nc3ncccn3)c2c1
[1]
  Bioavailabiility: Not orally available

## O=C(O)/C=C/C=C/c1cccc(Oc2cc(Cl)cc(Cl)c2)c1
Human papillomavirus [2]
  IC50: 10 µM

## O=C(O)/C=C/C=C/c1ccc(Oc2ccccc2)cc1
Human papillomavirus [3]
  Kd: 350 µM
Human papillomavirus [2]
  IC50: 75 µM

## O=C(O)c1ccc(-c2cc(Cl)cc(Cl)c2)cc1
Human papillomavirus [3]
  Kd: 60 µM
Human papillomavirus [2]
  IC50: 150 µM

## CC(=O)N[C@H]1[C@H](N)C=C(C(=O)O)C[C@@H]1N
[4]
  IC50: 31 µM

## CONC(=O)c1c(OCCOc2ccc(-c3ccc(C#N)cc3)cc2)ccc2ccccc12
Stromelysin-1 [5]
  IC50: 0.34 µM

## CNS(=O)(=O)c1ccc(O)c(C(=O)O)c1
Caspase-3
  Ki: > 1000 µM

## CSc1nc(N)nc(N)n1
[6]
  Kd: 1000 µM

## NS(=O)(=O)c1ccc(CSCc2ccc(C(=O)O)cc2)cc1
Carbonic anhydrase
  IC50: 0.084 µM

## O=C(NCCCCN1CCOCC1)c1cc2ccccc2o1
Collagenase 3
  IC50: 10 µM
Interstitial collagenase
  IC50: > 10 µM

## CCCNC(=O)c1ccc2nc(O)c(O)nc2c1
Nucleic Acid
  Kd: > 100 µM

## NC(=O)CSCc1ccc(S(N)(=O)=O)cc1
Carbonic anhydrase
  IC50: 0.77 µM

## O=C(Nc1ccccc1)c1c(Nc2ccccc2)[nH]c(=O)[nH]c1=O
[7]
  Ki: 0.72 µM

## O=C(Nc1cccc(C(F)(F)F)c1)c1csc(-c2ccncc2)n1
[7]
  Ki: 13 µM

## NCC[C@@H](NC(=O)c1ccco1)C(=O)N1CCNCC1
Nucleic Acid
  Kd: > 100 µM

## Nc1ccc2cccc(Nc3ncccn3)c2n1
[8]
  bioavailability: 38%

## CO/N=C/c1ccc(O)c(O)c1
[9]
  IC50: 41 µM

## C1=CC2N=C3CCCCC3=C(NCCCCCCCNc3c4c(nc5ccccc35)CCCC4)C2C=C1 (stereo not drawn)
Acetylcholinesterase [10]
  IC50: 0.0004 µM

## O=C(Nc1ccccc1O)c1ccc(O)cc1
[11]
  Kd: 800 µM

## NC(N)=Nc1nc(-c2ccc(CNc3cc4ccccc4[nH]3)s2)cs1
Adenosine deaminase
  Ki: 1.2 µM

## O=CN(O)[C@@H](CCCN1C(=O)N[C@@]2(O[C@H](COP(=O)(O)O)[C@@H](O)[C@H]2O)C1=O)C(=O)O
[12]
  IC50: 0.043 µM

## N#CCc1cccc(-c2ccc(O)cc2)c1
Stromelysin-1 [13]
  Kd: 20 µM

## NCC[C@@H](NC(=O)c1ccc(-c2cccc(NC(=O)c3ccc4nc(O)c(O)nc4c3)c2)o1)C(=O)N1CCNCC1
Nucleic Acid
  Kd: 6.5 µM

## CCn1c2ccccc2c2cc(/C=N\OC)ccc21
[9]
  IC50: 40 µM

## CC(=O)N1CCN(C(=O)/C=C/c2cccc([N+](=O)[O-])c2)CC1
[14]
  IC50: 80 µM

## CCn1c2ccccc2c2cc(/C=N\OCCO/N=C/c3ccc(O)c(O)c3)ccc21
[9]
  IC50: 0.064 µM

## Nc1ccc2cccc(O)c2n1
[15]
  Ki: 56 µM

## O=C(O)c1ccc2nc(O)c(O)nc2c1
Nucleic Acid
  Kd: > 100 µM

## CC(=O)N1CCN(C(=O)/C=C/c2ccc(Sc3ccc4[nH]ccc4c3)c(Cl)c2)CC1
[16]
  half-life: 4.7 h

## O=C(O)c1cc2ccccc2s1
[17]
  Kd: > 1000 µM

## CN(C)C(=O)[C@H](O)[C@H](Cc1ccccc1)NC(=O)c1cc2cc(Cl)ccc2[nH]1
[18]
  IC50: 0.13 µM

## CCC(CC)N[C@@H]1C=C(C(=O)O)C[C@H](N)[C@H]1NC(C)=O
[4]
  IC50: 0.085 µM

## O=C(O)CCCc1ccc(Oc2ccccc2)cc1
Human papillomavirus [3]
  Kd: 1900 µM

## c1ccc(NCCCCCCCNc2c3c(nc4ccccc24)CCCC3)cc1
Acetylcholinesterase [10]
  IC50: 0.39 µM

## COc1cc(C(=O)C(=O)N2CCCC[C@H]2C(=O)OCCCOc2ccc(C(=O)Nc3ccc(O)cc3)cc2)cc(OC)c1OC
[11]
  Kd: 0.019 µM

## COC(=O)[C@@H]1CCCCN1C(=O)C(=O)c1cc(OC)c(OC)c(OC)c1
[11]
  Kd: 2 µM

## O=C(O)CC[C@H](NC(=O)c1ccc(S(=O)(=O)N2CCC[C@@H]2C(=O)O)cc1)C(=O)O
Thymidylate synthase [19]
  Ki: 24 µM

## COCCNC(=O)c1cc2cc(Cl)ccc2[nH]1
[18]
  IC50: 12.5 µM

## CC(=O)N[C@@H]1[C@@H](N)CC(C(=O)O)=C[C@H]1NCCCc1ccccc1
[4]
  IC50: 1.64 µM

## Cc1cc(C)c(N(Cc2ccccc2)S(=O)(=O)c2ccc(OCCNC(=O)c3cc4ccccc4o3)cc2)c(C(=O)NO)c1
Interstitial collagenase
  IC50: > 10 µM

## CN(C)CC/C=C(\c1ccc(Cl)cc1)c1ccc(CCCc2ccc(/C(=C\CCN(C)C)c3ccc(Cl)cc3)cc2)cc1
Bcl-2-like protein 1
  IC50: 10 µM

## Nc1nc(NC2Cc3ccccc3C2)nc(N2CCCCC2)n1
[20]
  Ki: 8 µM

## CN(C)CCC=C(c1ccc(Cl)cc1)c1ccc(Cl)cc1
Bcl-2-like protein 1
  IC50: 180 µM

## O=C(Nc1ccc(O)cc1)c1ccc(O)cc1
[11]
  Kd: 100 µM

## Cc1ccc(S(=O)(=O)N2CCC[C@@H]2C(=O)O)cc1
Thymidylate synthase [21]
  Ki: 1100 µM

## O=C(O)CCNC(=O)[C@H]1CCCN1S(=O)(=O)c1ccc(C(=O)N[C@@H](CCC(=O)O)C(=O)O)cc1
Thymidylate synthase [19]
  Ki: 0.33 µM

## COc1ccc(-c2cc(C3CCN(C(=O)CNC(=O)[C@@H](CC(C)C)N=C(N)N)CC3)n(C)n2)c(Cl)c1Cl
[22]
  IC50: 3 µM

## CC(C)C[C@@H](NC(=N)N)C(=O)NCC(=O)N1CCC(c2cc(-c3ccc(OCc4ccc(C(=O)O)o4)c(Cl)c3Cl)nn2C)CC1
[22]
  IC50: 0.06 µM

## O=C(NCCOCCOCCNC(=O)c1cc2cc(Cl)ccc2[nH]1)c1cc2cc(Cl)ccc2[nH]1
[18]
  IC50: 0.006 µM

## NCc1nc2ccc(NCc3ccccc3OCc3ccccc3)cc2[nH]1
[23]
  IC50: 13 µM

## Oc1ccc(-c2ccccc2)cc1
Stromelysin-1 [13]
  Kd: 280 µM

## NS(=O)(=O)c1ccc(N/N=C2\C(=O)Nc3ccc(Cl)cc32)cc1 [GW280670X]
[24]
  IC50: 0.03 µM

## O=CN(O)CC(=O)O [HADACIDIN]
[12]
  IC50: 3.5 µM

## O=C1NC(=O)[C@@]2(N1)O[C@H](COP(=O)(O)O)[C@@H](O)[C@H]2O [PHOSPHOHYDANTOCIDIN]
[12]
  IC50: 0.675 µM

## CC[N+](C)(CC)CCC[n+]1c(-c2ccccc2)c2cc(N)ccc2c2ccc(N)cc21 [PROPIDIUM]
Acetylcholinesterase [25]
  Kd: 1.1 µM
